{"source": "patent US20260125400A1", "about": "“TYK2 DEGRADERS AND USES THEREOF” (Kymera Therapeutics, Inc., priority 2023, published 2026)", "molecular_target": "T1, TYK2 (Homo sapiens, UniProt P29597)", "T1 construct": "Degradation of TYK2 in cells was quantitatively measured using Meso Scale Discovery (MSD) technology; endogenous in cells; host or cells: OCI-LY10", "T1 sequence (P29597 whole entry)": "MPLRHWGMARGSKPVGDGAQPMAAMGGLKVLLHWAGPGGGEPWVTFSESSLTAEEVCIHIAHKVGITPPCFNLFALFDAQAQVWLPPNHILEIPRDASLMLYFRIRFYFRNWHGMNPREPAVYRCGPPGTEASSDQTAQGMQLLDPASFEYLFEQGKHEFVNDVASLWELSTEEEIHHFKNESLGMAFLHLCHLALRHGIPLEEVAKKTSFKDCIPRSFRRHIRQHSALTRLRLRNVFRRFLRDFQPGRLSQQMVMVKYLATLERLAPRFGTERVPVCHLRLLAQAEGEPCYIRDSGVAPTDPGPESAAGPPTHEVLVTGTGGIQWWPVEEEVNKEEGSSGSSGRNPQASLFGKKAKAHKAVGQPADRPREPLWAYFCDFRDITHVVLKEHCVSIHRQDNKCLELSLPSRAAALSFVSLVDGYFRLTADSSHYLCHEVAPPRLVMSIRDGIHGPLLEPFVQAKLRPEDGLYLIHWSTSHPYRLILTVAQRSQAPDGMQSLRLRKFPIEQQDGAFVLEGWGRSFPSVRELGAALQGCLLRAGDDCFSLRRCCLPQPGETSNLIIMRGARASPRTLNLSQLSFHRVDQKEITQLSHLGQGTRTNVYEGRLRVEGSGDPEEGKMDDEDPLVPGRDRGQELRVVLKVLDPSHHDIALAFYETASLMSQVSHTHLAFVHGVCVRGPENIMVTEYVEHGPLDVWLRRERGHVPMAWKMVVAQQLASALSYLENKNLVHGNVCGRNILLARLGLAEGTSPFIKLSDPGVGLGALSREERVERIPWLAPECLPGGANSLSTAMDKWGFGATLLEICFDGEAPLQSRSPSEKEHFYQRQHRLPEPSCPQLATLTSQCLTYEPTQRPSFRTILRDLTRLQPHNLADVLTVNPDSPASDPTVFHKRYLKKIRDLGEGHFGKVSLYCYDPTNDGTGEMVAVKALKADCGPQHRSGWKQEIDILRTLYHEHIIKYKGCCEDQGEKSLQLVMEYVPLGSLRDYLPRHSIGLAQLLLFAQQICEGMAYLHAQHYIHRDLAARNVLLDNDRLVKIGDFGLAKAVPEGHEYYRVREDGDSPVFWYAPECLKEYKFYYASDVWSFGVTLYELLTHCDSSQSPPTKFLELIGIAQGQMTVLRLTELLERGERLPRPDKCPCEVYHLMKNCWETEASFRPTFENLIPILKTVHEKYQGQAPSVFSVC", "experiment": "TYK2 MSD degradation in OCI-LY10 cells", "format": "cell-based", "details": "TYK2 degradation in OCI-LY10 cells, 4 to 24 hours incubation; for DC50: read-out: TYK2 MSD OCI-LY10 Rel-DC50", "procedure,_shortened": "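OCI-LY10 cells were treated with 9-dose 1:3 series (top 1 to 10 μM final) for 4 to 24 hours at 37° C. Lysate TYK2 quantified by MSD sandwich immunoassay; DC50 and Dmax from four-parameter inhibitor vs. response fit.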", "data": [{"smiles": "COC1(c2cc(-c3ccc(CN4CC5(CCN(C(=O)c6ccc(Cl)c(N7CCC(=O)NC7=O)c6)CC5)C4)cn3)cc(-c3cn(C)c4cnc(NC(C)=O)cc34)n2)CCOC1", "note": "(stereo not drawn) [I-850]", "values": [{"measurement": "TYK2 MSD OCI-LY10 Dmax %", "result": "B (B (90 to >75%))"}, {"measurement": "DC50", "result": "< 10", "unit": "nM"}]}, {"smiles": "CNc1cc(N2CCc3c(-c4ccc(CN5CCC6(CCN(C(=O)c7ccc(Cl)c(N8CCC(=O)NC8=O)c7)CC6)C(F)(F)C5)cn4)cccc32)nn2c(C(=O)NC34CC(C3)C4)cnc12", "note": "[I-851]", "values": [{"measurement": "TYK2 MSD OCI-LY10 Dmax %", "result": "C (C (75 to 50%))"}, {"measurement": "DC50", "result": "10 to 100", "unit": "nM"}]}, {"smiles": "CNc1cc(N2CCc3c(-c4ccc(CN5CC6(CCN(C(=O)c7ccc(Cl)c(N8CCC(=O)NC8=O)c7)CC6(F)F)C5)cn4)cc(C)cc32)nn2c(C(=O)N[C@@H]3C[C@@H]3F)cnc12", "note": "[I-852]", "values": [{"measurement": "TYK2 MSD OCI-LY10 Dmax %", "result": "B (B (90 to >75%))"}, {"measurement": "DC50", "result": "< 10", "unit": "nM"}]}, {"smiles": "CNc1cc(N2CCc3c(CN4CCC(N5CCC6(CCN(C(=O)c7cc(N8CCC(=O)NC8=O)c(C)cc7F)CC6)CC5)C(F)(F)C4)cccc32)nn2c(C(=O)N[C@@H]3C[C@@H]3F)cnc12", "note": "(stereo partly drawn) [I-853]", "values": [{"measurement": "TYK2 MSD OCI-LY10 Dmax %", "result": "A (A (>90%))"}, {"measurement": "DC50", "result": "< 1", "unit": "nM"}]}, {"smiles": "CNc1cc(N2CCc3c(C#CCN4CCC(N5CCN(C(=O)c6ccc(Cl)c(N7CCC(=O)NC7=O)c6)CC5)C(F)(F)C4)cccc32)nn2c(C(=O)NC3CC3F)cnc12", "note": "(stereo not drawn) [I-854]", "values": [{"measurement": "TYK2 MSD OCI-LY10 Dmax %", "result": "A (A (>90%))"}, {"measurement": "DC50", "result": "< 1", "unit": "nM"}]}, {"smiles": "CNc1cc(N2CCc3c(CN4CCC(N5CCC6(CC5)CN(C(=O)c5ccc(Cl)c(N7CCC(=O)NC7=O)c5)C6)C(F)(F)C4)cccc32)nn2c(C(=O)N[C@@H]3C[C@@H]3F)cnc12", "note": "(stereo partly drawn) [I-855]", "values": [{"measurement": "TYK2 MSD OCI-LY10 Dmax %", "result": "A (A (>90%))"}, {"measurement": "DC50", "result": "< 1", "unit": "nM"}]}, {"smiles": "CNc1cc(N2CCc3c(-c4ccc(CN5CC6(CCN(C(=O)c7ccc(Cl)c(N8CCC(=O)NC8=O)c7)CC6(F)F)C5)cn4)cc(C(F)(F)F)cc32)nn2c(C(=O)N[C@@H]3C[C@@H]3F)cnc12", "note": "[I-856]", "values": [{"measurement": "TYK2 MSD OCI-LY10 Dmax %", "result": "C (C (75 to 50%))"}, {"measurement": "DC50", "result": "10 to 100", "unit": "nM"}]}, {"smiles": "CNc1cc(N2CCc3c(CN4CCN(C5CCC6(CC5)CCN(C(=O)c5ccc(Cl)c(N7CCC(=O)NC7=O)c5)CC6)CC4)cccc32)nn2c(C(=O)N[C@@H]3C[C@@H]3F)cnc12", "note": "[I-857]", "values": [{"measurement": "TYK2 MSD OCI-LY10 Dmax %", "result": "A (A (>90%))"}, {"measurement": "DC50", "result": "< 1", "unit": "nM"}]}, {"smiles": "COC1(c2cc(C)cc(-c3cn(C4CCN(CC5CCN(C(=O)c6ccc(Cl)c(N7CCC(=O)NC7=O)c6)CC5)CC4)c4cnc(NC(C)=O)cc34)n2)CCOC1", "note": "(stereo not drawn) [I-858]", "values": [{"measurement": "TYK2 MSD OCI-LY10 Dmax %", "result": "D (D (<50%))"}, {"measurement": "DC50", "result": "> 100", "unit": "nM"}]}, {"smiles": "CNc1cc(N2CCc3c(-c4ccc(CN5CC6(CCN(C(=O)c7ccc(Cl)c(N8CCC(=O)NC8=O)c7)CC6(F)F)C5)cn4)cc(OC)cc32)nn2c(C(=O)N[C@@H]3C[C@@H]3F)cnc12", "note": "[I-859]", "values": [{"measurement": "TYK2 MSD OCI-LY10 Dmax %", "result": "B (B (90 to >75%))"}, {"measurement": "DC50", "result": "< 10", "unit": "nM"}]}, {"smiles": "CNc1cc(N2CCc3c(-c4ccc(N5CCC6(CCN(Cc7ccc(N8CCC(=O)NC8=O)c(Cl)c7)CC6)CC5)cn4)cccc32)nn2c(C(=O)N[C@@H]3C[C@@H]3F)cnc12", "note": "[I-870]", "values": [{"measurement": "TYK2 MSD OCI-LY10 Dmax %", "result": "C (C (75 to 50%))"}, {"measurement": "DC50", "result": "10 to 100", "unit": "nM"}]}, {"smiles": "CNc1cc(-c2ccc(-c3ccc(CN4CC5(CCN(C(=O)c6ccc(Cl)c(N7CCC(=O)NC7=O)c6)CC5(F)F)C4)cn3)cc2)nn2c(C(=O)N[C@@H]3C[C@@H]3F)cnc12", "note": "[I-880]", "values": [{"measurement": "TYK2 MSD OCI-LY10 Dmax %", "result": "B (B (90 to >75%))"}, {"measurement": "DC50", "result": "< 10", "unit": "nM"}]}, {"smiles": "CNc1cc(N2CCc3c(-c4ccc(N5CC6(CCN(Cc7ccc(N8CCC(=O)NC8=O)c(Cl)c7)CC6)C5)cn4)cccc32)nn2c(C(=O)N[C@@H]3C[C@@H]3F)cnc12", "note": "[I-881]", "values": [{"measurement": "TYK2 MSD OCI-LY10 Dmax %", "result": "B (B (90 to >75%))"}, {"measurement": "DC50", "result": "< 10", "unit": "nM"}]}, {"smiles": "CNc1cc(-c2ccc(N3CCC(CN4CC5(CCN(C(=O)c6ccc(Cl)c(N7CCC(=O)NC7=O)c6)CC5(F)F)C4)CC3)cc2)nn2c(C(=O)N[C@@H]3C[C@@H]3F)cnc12", "note": "[I-882]", "values": [{"measurement": "TYK2 MSD OCI-LY10 Dmax %", "result": "D (D (<50%))"}, {"measurement": "DC50", "result": "> 100", "unit": "nM"}]}, {"smiles": "CNc1cc(N2CCc3c(-c4ccc(CN5CC6(CCN(C(=O)c7ccc(Cl)c(N8CCC(=O)NC8=O)c7)CC6(F)F)C5)cn4)cccc32)nn2c(C(=O)N[C@H]3C[C@@H](F)C3)cnc12", "note": "[I-883]", "values": [{"measurement": "TYK2 MSD OCI-LY10 Dmax %", "result": "A (A (>90%))"}, {"measurement": "DC50", "result": "< 1", "unit": "nM"}]}]}
